In brackets after ≈: the same amount, converted by molar mass. Read-outs that look alike come from different tables or passages of the source.
Key:
S. aureus biofilms = assay: Anti-staphylococcal biofilm activity (static biofilms, cfu); format: cell-based, Staphylococcus aureus
Staphylococcus aureus = assay: Minimum bactericidal concentration / bactericidal activity against SA; format: cell-based; conditions: for MBC (100% killing of SA): 24 hours, n=4
[1] = tested on: Staphyloccocus aureus USA300; assay: Minimum inhibitory concentration, broth microdilution, Staphylococcus aureus; format: cell-based; conditions: for MIC: Staphylococcus aureus
[2] = tested on: Bacillus anthracis V770-NP1-R; assay: microbe, parasite or virus in culture; format: cell-based; conditions: V770NP1R, read-out: MIC BA
human Hela cells = assay: Mammalian cytotoxicity assay (CellTiter 96 AQueous One); format: cell-based; conditions: 24 h, highest concentration tested 100 μM, read-out: IC50 human Hela cell proliferation
Bacillus anthracis = assay: microbe, parasite or virus in culture; conditions: 1 h, read-out: reduction of BA culture viability
[3] = Pharmacokinetics of pyrrolomycin 4 in mice (LC-MS/MS of plasma)
[4] = Staphyloccocus aureus USA300, n ≥ 3, read-out: MIC SA

Row | Structure (SMILES) | MIC [1, 4] [µg/mL] | MIC [2] [µg/mL] | MIC ([1]; USA300, read-out: MIC SA) [µg/mL] | melting point [°C] | IC50 (human Hela cells) [µg/mL] | other results
1 | CN[C@H](CC(C)C)C(=O)N[C@H]1C(=O)N[C@@H](CC(N)=O)C(=O)N[C@H]2C(=O)N[C@H]3C(=O)N[C@H](C(=O)N[C@H](C(=O)O)c4cc(O)cc(O)c4-c4cc3ccc4O)[C@H](O)c3ccc(c(Cl)c3)Oc3cc2cc(c3O[C@@H]2O[C@H](CO)[C@@H](O)[C@H](O)[C@H]2O[C@H]2C[C@](C)(N)[C@H](O)[C@H](C)O2)Oc2ccc(cc2Cl)[C@H]1O [vancomycin, reference compound] | 2 (≈ 1.38 µM) |  |  |  |  | biofilm killing (S. aureus biofilms; 24 hours, 32 μg/mL, n=4): 11%; biofilm killing (S. aureus biofilms; 120 hours, 32 μg/mL): 39%; MBC (100% killing of SA) (Staphylococcus aureus): 8 µg/mL
2 | O=C(c1ccc[nH]1)c1cc(Cl)cc(Cl)c1O [Compound 15] |  | > 4 | > 4 |  |  | 
3 | O=C(c1ccc[nH]1)c1cc(F)cc(F)c1O [Compound 9] | > 4 | > 4 |  | 161.7 to 162.5 |  | 
4 | O=C(c1cc(Cl)cc(Cl)c1O)c1[nH]c(F)c(Br)c1Br [Compound 18] | 0.19 (≈ 0.44 µM) | 0.125 (≈ 0.289 µM) |  | 171.9 to 172.7 | > 43.2 | inhibition at […] (Bacillus anthracis): 92%
5 | COc1c(F)cc(F)cc1C(=O)c1[nH]c(Br)c(Br)c1Br [Compound 10] | 3 (≈ 6.33 µM) | 1.5 (≈ 3.17 µM) |  | 178.9 to 179.7 |  | 
6 | O=C(c1cc(Br)c(Br)[nH]1)c1cc(Cl)cc(Cl)c1O [Compound 17] |  | 0.188 (≈ 0.454 µM) | 0.073 (≈ 0.176 µM) |  | > 41.4 | 
7 | O=C(c1cc(F)cc(F)c1O)c1[nH]c(Br)c(Br)c1Br [Compound 3] | 0.17 (≈ 0.37 µM) | 0.031 (≈ 0.0674 µM) |  | 151.8 to 152.7 | > 46 | 
8 | COc1c(F)cc(F)cc1C(=O)c1c(Br)c(Br)c(Br)n1C [Compound 11] | > 4 | > 4 |  | 107.4 to 108.1 |  | 
9 | COc1c(F)cc(F)cc1C(=O)c1ccc[nH]1 [Compound 8] | > 4 | > 4 |  | 85.7 to 87.1 |  | 
10 | Cn1c(Br)c(Br)c(Br)c1C(=O)c1cc(F)cc(F)c1O [Compound 12] | > 4 | > 4 |  | 156.2 to 157.2 |  | 
11 | O=C(c1cc(Br)c(F)[nH]1)c1cc(Cl)cc(Cl)c1O [Compound 4] |  | 0.047 (≈ 0.133 µM) | 0.073 (≈ 0.207 µM) |  | > 35.3 | biofilm killing (S. aureus biofilms; 24 hours, 8.0 μg/mL, n=4): 84%; biofilm killing (S. aureus biofilms; 48 hours, 8.0 μg/mL): 97%; biofilm killing (S. aureus biofilms; 120 hours, 8.0 μg/mL): > 99.9%; inhibition at […] (Bacillus anthracis): 60%; oral bioavailability ([3]; 10 mg/kg oral vs 1.0 mg/kg IV): 35%; elimination half-life ([3]; IV): 6.04 h; time parent compound detectable in plasma ([3]; IV and oral, detection limit 0.8 ng/mL): up to 72 hours; AUC ([3]; IV dose 1 mg/kg): 3.8 µg·h/mL; elimination half-life ([3]; oral): 6.75 h; AUC ([3]; oral dose 10 mg/kg): 13.2 µg·h/mL; killing of SA (Staphylococcus aureus; 4 μg/mL, no growth of colonies after incubation for 48 hours): 100%; MBC (100% killing of SA) (Staphylococcus aureus): 4 µg/mL
12 | O=C(c1cc(Br)c[nH]1)c1cc(Cl)cc(Cl)c1O [Compound 19] |  |  | > 4 |  |  | MIC SA ([1]; Staphyloccocus aureus USA300, n ≥ 3): >4.0 µg/mL
